Laboratory results published in PMC9460261, “Need for a Standardized Translational Drug Development Platform: Lessons Learned from the Repurposing of Drugs for COVID-19” (Microorganisms, 2022).
pEC50, pIC50: −log10 of the molar value. Where two headings read alike, the source gives them in different places.

Tests used:
[1] = system: SARS-CoV-2 in Calu-3 cells; assay: microbe, parasite or virus in culture; conditions: Severe acute respiratory syndrome coronavirus 2, Calu-3, read-out: Calu-3 cells Average IC50
[2] = in vitro; conditions: African green monkey, Selectivity Index (Vero cells)
[3] = system: SARS-CoV-2; type: in vivo, Syrian hamster; conditions: for Activity in SARS-CoV-2 Hamster Model: doses, frequency, duration as in Table 1
[4] = system: SARS-CoV-2 in Vero cells
[5] = system: SARS-CoV-2 in Calu-3 cells
[6] = female, LGV Golden Syrian, hamster, in vivo
[7] = system: SARS-CoV-2 in Vero cells; assay: microbe, parasite or virus in culture; conditions: Severe acute respiratory syndrome coronavirus 2, Vero
[8] = in vitro; conditions: bovine
[9] = in vitro; conditions: hamster, plasma
[10] = in vitro; conditions: human, plasma
[11] = system: SARS-CoV-2; conditions: read-out: SARS-CoV-2 EC50, cited from earlier work
[12] = Population PK model in human (digitized literature data); conditions: modelled from digitized data
[13] = Plasma protein binding, hamster; conditions: hamster, plasma
[14] = Binding to antiviral assay medium by Rapid Equilibrium Dialysis; conditions: bovine
[15] = cited from earlier work
[16] = Population PK model from satellite PK studies in hamster
[17] = system: SARS-CoV-2 in A549-Dual hACE2-TMPRSS2 cells; set-up: method as in Abdelnabi et al., 2022 [60]; conditions: ref Abdelnabi et al., 2022 [60]; cited from earlier work
[18] = read-out: VERO cells Average IC50, With Pgp pump inhibitor, 2 μM CP-100356, * one replicate only
[19] = read-out: VERO cells Average IC50, Without Pgp pump inhibitor, * one replicate only
[20] = human, ref 68 (ambroxol), 71-73 (cepharanthine)
[21] = human, ref 68 (ambroxol), 71-73 (cepharanthine), 78 (fluvoxamine), 80 (molnupiravir)
[22] = hamster of the study's median weight (80-131 g)

With `COc1ccc2cc1Oc1ccc(cc1)C[C@H]1c3c(cc4c(c3Oc3cc5c(cc3OC)CCN(C)[C@@H]5C2)OCO4)CCN1C` [Cepharanthine, cepharanthine] as the compound, how does the pIC50 [1] read?
The pIC50 was less than 4.30.

And the selectivity ratio ([2]; With Pgp pump inhibitor)?
Its selectivity ratio is 17.2.

And the selectivity ratio ([2]; Without Pgp pump inhibitor)?
Its selectivity ratio is 9.7.

What about the “Activity in SARS-CoV-2 Hamster Model” value [3] of the same compound?
The value was “No”.

And the “Activity In Vitro; Potency EC50 or IC50 < 10 µM; Vero Cells” value (“Activity In Vitro … Vero Cells” below) [4]?
The value was “Yes (Potency EC50 or IC50 < 10 µM)”.

What about the “Toxicity observed (^T), Vero Cells” value [4] of the same compound?
Its value is “Yes ^T”.

And the “Activity In Vitro; Potency EC50 or IC50 < 10 µM; Calu-3 Cells” value (from here on “Activity In Vitro … Calu-3 Cells”) [5]?
Its value is “No (Potency EC50 or IC50 < 10 µM)”.

What about the “CL/F, elimination clearance, population estimate (%RSE)” value (“CL/F, elimination clearance … (%RSE)” for short) [6] of the same compound?
The value was 804 (25.0) mL/h.

And the “KA, absorption rate constant, population estimate (%RSE)” value (shortened to “KA, absorption rate constant … (%RSE)”) [6]?
The value was 1.52 (27.0) h-1.

What about the “VC/F, central volume of distribution, population estimate (%RSE)” value (“VC/F, central volume … (%RSE)” for short) [6] of the same compound?
The value was 66400 (12.5) mL.

What about the pIC50 [7, 18] of the same compound?
Its pIC50 is 5.72.

What about the pIC50 [7, 19] of the same compound?
Its pIC50 is 5.35.

What about the fraction unbound [8] of the same compound?
The fraction unbound was 0.643.

And the fraction unbound [9]?
Its fraction unbound is 0.018.

And the fraction unbound [10]?
The fraction unbound was 0.02.

And the pEC50 ([11]; host cell VeroE6/TMPRSS2)?
Its pEC50 is 6.46.

What about the “F, population estimate (%RSE)” value ([12]; adult 70 kg) of the same compound?
The value was 0.116 (7.3%).

And the “KA, population estimate (%RSE)” value ([12]; adult 70 kg)?
The value was 0.187 (11.0%) h-1.

And the “Q2/F, population estimate (%RSE)” value ([12]; adult 70 kg)?
Its value is 131 (14.2%) L/h.

What about the “VP2/F, population estimate (%RSE)” value ([12]; adult 70 kg) of the same compound?
Its value is 438 (26.5%) L.

And the “Q/F (Q1/F), population estimate (%RSE)” value [12, 20]?
Its value is 258 (7.6%) L/h.

And the “VP/F (VP1/F), population estimate (%RSE)” value [12, 20]?
Its value is 9190 (7.3%) L.

What about the “CL/F, population estimate (%RSE)” value [12, 21] of the same compound?
The value was 74.4 (5.5%) L/h.

What about the “VC/F, population estimate (%RSE)” value [12, 21] of the same compound?
The value was 110 (10.8%) L.

Which results are given for `COC(=O)N[C@H](C(=O)N1CCC[C@H]1c1nc(-c2ccc(-c3ccc(-c4c[nH]c([C@@H]5CCCN5C(=O)[C@@H](NC(=O)OC)C(C)C)n4)cc3)cc2)c[nH]1)C(C)C` [Daclatasvir, daclatasvir]?
pIC50 [1]: 4.61; selectivity ratio ([2]; With Pgp pump inhibitor, T: toxicity observed): > 6.6; selectivity ratio ([2]; Without Pgp pump inhibitor, T: toxicity observed): > 2.5; Activity in SARS-CoV-2 Hamster Model [3]: No; Activity in SARS-CoV-2 Hamster Model ([3]; listed as daclatasvir): no activity; Activity In Vitro; Potency EC50 or IC50 < 10 µM; Vero Cells ([4]; in the presence of a P-glycoprotein inhibitor (^Pgp)): Yes (Potency EC50 or IC50 < 10 µM); Activity In Vitro; Potency EC50 or IC50 < 10 µM; Calu-3 Cells [5]: No (Potency EC50 or IC50 < 10 µM); fraction unbound [13]: 0.055; fraction unbound [14]: 0.209; pIC50 [7, 18]: 5.12; pIC50 [7, 19]: 4.70; pEC50 ([11]; host cell Calu-3): 5.96; pEC50 ([11]; host cell HuH-7): 6.22; pEC50 ([11]; host cell Vero, ref 26): 6.10; Fraction unbound in plasma, human ([15]; literature, ref 61 (N-desethylamodiaquine), 62 (atazanavir), 63 (daclatasvir), 64 (favipiravir), 65 (ivermectin), 66 (tizoxanide), 67 (sofosbuvir)): 1%; CL/F, elimination clearance, population estimate (%RSE) [16, 22]: 239 (19.6) mL/h; KA, absorption rate constant, population estimate (%RSE) [16, 22]: 0.415 (5.84) h-1; Q/F (Q1/F), inter-compartment clearance, population estimate (%RSE) [16, 22]: 33.4 (25.5) mL/h; VC/F, central volume of distribution, population estimate (%RSE) [16, 22]: 86.3 (27.0) mL; VP/F, peripheral volume of distribution, population estimate (%RSE) [16, 22]: 438 (25.6) mL

With `NC(=O)c1nc(F)c[nH]c1=O` [Favipiravir, favipiravir] as the compound, how does the pIC50 [1] read?
The pIC50 was less than 4.30.

What about the “Activity in SARS-CoV-2 Hamster Model” value [3] of the same compound?
The value was “Yes”.

And the “Activity in SARS-CoV-2 Hamster Model” value ([3]; listed as favipiravir)?
Its value is “demonstrated in vivo efficacy”.

What about the “Activity In Vitro … Vero Cells” value [4] of the same compound?
Its value is “No (Potency EC50 or IC50 < 10 µM)”.

What about the “Activity In Vitro … Calu-3 Cells” value [5] of the same compound?
Its value is “No (Potency EC50 or IC50 < 10 µM)”.

And the “CL/F, elimination clearance … (%RSE)” value [6]?
The value was 58.2 (6.06) mL/h.

And the “KA, absorption rate constant … (%RSE)” value [6]?
The value was 0.774 (7.71) h-1.

What about the “Q/F (Q1/F), inter-compartment clearance, population estimate (%RSE)” value [6] of the same compound?
Its value is 1.80 (12.7) mL/h.

And the “VC/F, central volume … (%RSE)” value [6]?
Its value is 11.7 (14.7) mL.

What about the “VP/F, peripheral volume of distribution, population estimate (%RSE)” value [6] of the same compound?
The value was 11.6 (8.7) mL.

And the fraction unbound [14]?
The fraction unbound was 0.993.

What about the pIC50 [7, 18] of the same compound?
Its pIC50 is less than 4.30.

And the pIC50 [7, 19]?
Its pIC50 is less than 4.30.

What about the fraction unbound [9] of the same compound?
The fraction unbound was 0.821.

And the pEC50 ([11]; host cell Vero E6, ref 17)?
The pEC50 was 3.35.

What about the pEC50 ([11]; host cell Vero E6, ref 31) of the same compound?
The pEC50 was less than 4.00.

What about the pEC50 ([11]; host cell Vero E6, ref 32) of the same compound?
Its pEC50 is less than 4.30.

What about the pEC50 ([11]; host cell Vero E6, ref 34) of the same compound?
Its pEC50 is 3.93.

What about the pEC50 ([11]; host cell Vero E6, ref 35) of the same compound?
The pEC50 was 4.21.

And the pEC50 ([11]; host cell Vero, ref 25)?
Its pEC50 is less than 3.30.

What about the pEC50 ([11]; host cell Vero, ref 36) of the same compound?
The pEC50 was less than 4.70.

What about the pEC50 ([11]; host cell VeroE6/TMPRSS2) of the same compound?
The pEC50 was less than 4.19.

What about the “Fraction unbound in plasma, human” value ([15]; human, plasma) of the same compound?
The value was 46%.

With `CC(C)(C)[C@H](NC(=O)C(F)(F)F)C(=O)N1C[C@H]2[C@@H]([C@H]1C(=O)N[C@H](C#N)C[C@@H]1CCNC1=O)C2(C)C` [Nirmatrelvir, nirmatrelvir] as the compound, how does the pIC50 [1] read?
Its pIC50 is 6.52.

What about the pEC50 [17] of the same compound?
The pEC50 was 6.96.

And the “Activity in SARS-CoV-2 Hamster Model” value [3]?
Its value is “Yes”.

What about the “Activity in SARS-CoV-2 Hamster Model” value ([3]; listed as nirmatrelvir) of the same compound?
The value was “demonstrated in vivo efficacy”.

What about the “Lung TCID50 of SARS-CoV-2 in the hamster model” value ([3]; hamster, in vivo) of the same compound?
The value was “significant reduction”.

And the “Activity In Vitro … Vero Cells” value [4]?
The value was “Yes (Potency EC50 or IC50 < 10 µM)”.

What about the “Activity In Vitro … Calu-3 Cells” value [5] of the same compound?
Its value is “Yes (Potency EC50 or IC50 < 10 µM)”.

What about the fraction unbound [13] of the same compound?
The fraction unbound was 0.621.

And the fraction unbound [14]?
The fraction unbound was 0.898.

And the pIC50 [7, 18]?
The pIC50 was greater than 7.30.

What about the pIC50 [7, 19] of the same compound?
Its pIC50 is 5.47.

With `CC(C)/N=c1\cc2n(-c3ccc(Cl)cc3)c3ccccc3nc-2cc1Nc1ccc(Cl)cc1` [Clofazimine, clofazimine] as the compound, how does the pIC50 [1] read?
Its pIC50 is 5.08.

And the selectivity ratio ([2]; With Pgp pump inhibitor)?
The selectivity ratio was 208.

And the selectivity ratio ([2]; Without Pgp pump inhibitor)?
The selectivity ratio was 8.4.

And the “Activity in SARS-CoV-2 Hamster Model” value [3]?
The value was “No”.

And the “Activity In Vitro … Vero Cells” value [4]?
Its value is “Yes (Potency EC50 or IC50 < 10 µM)”.

And the “Toxicity observed (^T), Vero Cells” value [4]?
The value was “Yes ^T”.

What about the “Activity In Vitro … Calu-3 Cells” value [5] of the same compound?
Its value is “Yes (Potency EC50 or IC50 < 10 µM)”.

What about the “CL/F, elimination clearance … (%RSE)” value [6] of the same compound?
Its value is 49.4 (7.2) mL/h.

And the “VC/F, central volume … (%RSE)” value [6]?
The value was 356 (11.9) mL.

And the pIC50 ([7]; read-out: VERO cells Average IC50, With Pgp pump inhibitor)?
The pIC50 was 6.70.

What about the pIC50 ([7]; read-out: VERO cells Average IC50, Without Pgp pump inhibitor) of the same compound?
Its pIC50 is 5.23.

What about the fraction unbound [8] of the same compound?
Its fraction unbound is 0.003.

What about the fraction unbound [9] of the same compound?
Its fraction unbound is less than 0.001.

What about the fraction unbound [10] of the same compound?
Its fraction unbound is less than 0.001.

And the pEC50 ([11]; host cell Vero E6, ref 39)?
Its pEC50 is 6.51.

What about the “Dose effect on F (power)” value ([16]; covariate, hamster model) of the same compound?
Its value is -0.109 (16.2).

What about the “Dose effect on KA (exp)” value ([16]; covariate, hamster model) of the same compound?
Its value is -0.0094 (20.4).

What about the “Q2/F, population estimate (%RSE)” value ([16]; hamster 120 g) of the same compound?
Its value is 90.5 (20.6) mL/h.

What about the “VP2/F, population estimate (%RSE)” value ([16]; hamster 120 g) of the same compound?
The value was 7390 (14.9) mL.

And the “KA, absorption rate constant … (%RSE)” value [16, 22]?
Its value is 0.38 (11.0) h-1.

And the “Q/F (Q1/F), inter-compartment clearance, population estimate (%RSE)” value [16, 22]?
The value was 235 (10.4) mL/h.

What about the “VP/F, peripheral volume of distribution, population estimate (%RSE)” value [16, 22] of the same compound?
The value was 2250 (28.0) mL.
